Measurements reported in PubChem BioAssay AID1996.
In brackets after ≈: the same amount, converted by molar mass.

Conditions: buffer; pH 7.4; 200.0 µM

| SMILES | solubility kinetic |
| --- | --- |
| COc1ccc(NC2c3ccccc3C(=O)N2c2ccccn2)cc1 (stereo not drawn) | 34.1 µg/mL (≈ 103 µM) |
| Cc1ccc(S(=O)(=O)Nc2cccc(S(=O)(=O)Nc3ccccc3C(=O)O)c2)c(C)c1 | > 69.1 µg/mL |
| COc1cccc(OC)c1C(=O)NC(C)CCc1ccccc1 (stereo not drawn) | 44.2 µg/mL (≈ 141 µM) |
| O=C(Nc1cc(C(=O)N2CCN(c3ccccc3)CC2)ccc1Cl)c1cccs1 | 4.8 µg/mL (≈ 11.3 µM) |
| NC(=O)C1CCN(C(=O)c2cccc3ccccc23)CC1 | > 42.4 µg/mL |
| CCOc1ccccc1Nc1ccc(C(=O)O)cc1N | 37.6 µg/mL (≈ 138 µM) |
| O=C(CCCn1cc([N+](=O)[O-])cn1)N1CCCCC1 | > 39.9 µg/mL |
| CC(C)NC(=S)N1CCC(Cc2ccccc2)CC1 | 24.4 µg/mL (≈ 88.3 µM) |
| O=c1c2c([N+](=O)[O-])cc([N+](=O)[O-])cc2sn1Cc1ccccc1 | 17.2 µg/mL (≈ 51.9 µM) |
| COc1ccccc1NC(=O)c1ccc(NC(=O)COC(=O)c2cncc(Br)c2)cc1 | 10 µg/mL (≈ 20.6 µM) |
| O=[N+]([O-])c1ccccc1CN1CCN(c2ncccn2)CC1 | 34.8 µg/mL (≈ 116 µM) |
| Cc1ccsc1C(=O)N1CCN(c2ccccn2)CC1 | > 43.1 µg/mL |
| Cn1cc(S(=O)(=O)N2CCCC(C(=O)O)C2)cn1 (stereo not drawn) | > 41 µg/mL |
| Cc1cccc(NC(=O)c2cc([N+](=O)[O-])ccc2N2CCCCC2)n1 | 0.4 µg/mL (≈ 1.18 µM) |
| O=C1CC2c3ccccc3C1C1C(=O)N(CCO)C(=O)C21 (stereo not drawn) | > 42.8 µg/mL |
| Nc1c(C(=O)N2CCOCC2)sc2nc3c(cc12)CCC3 | > 45.5 µg/mL |
| COc1ccc(OC)c(NC(=O)CCC(=O)Oc2ccc(C)cc2)c1 | 49.1 µg/mL (≈ 143 µM) |
| Cc1cccc(Oc2ccc(NC(=O)c3ccccc3C(=O)O)cc2)c1 | > 52.1 µg/mL |
| Fc1ccc(CNc2nc(-c3cccnc3)nc3ccccc23)cc1 | 5.6 µg/mL (≈ 17 µM) |
| O=S(=O)(c1c(Cl)cc(Br)cc1Cl)N1CCN(C(=S)NC2CC2)CC1 | 5.3 µg/mL (≈ 11.2 µM) |

| SMILES | solubility kinetic |
| --- | --- |
| O=C(Nc1ccccc1N1CCCC1)C1CCCO1 (stereo not drawn) | > 39.1 µg/mL |
| CCNc1nc(N)c(C(=O)C23CC4CC(CC(C4)C2)C3)s1 | 2 µg/mL (≈ 6.55 µM) |
| O=C(Nc1cccc2ncccc12)c1ccc([N+](=O)[O-])o1 | > 42.5 µg/mL |
| CCOC(=O)C1=NNC2(CC(=O)N(c3cccc(C)c3)C2=O)C1 (stereo not drawn) | > 47.3 µg/mL |
| CCN1C(=O)C(=O)N(Cc2ccc(OC)c(F)c2)C1=O | 40.4 µg/mL (≈ 144 µM) |
| COc1cc(OC)c(C(=O)O/N=C(\N)c2ccc(C)cc2)cc1OC | > 51.7 µg/mL |
| CSc1ccc(CN(C)C(=O)c2cc(=O)c3ccccc3o2)cc1 | > 50.9 µg/mL |
| Cc1cccc(NC(=O)CN2C(=O)NC3(CCCC3)C2=O)n1 | > 45.3 µg/mL |
| O=C(CC(=O)c1ccccc1)Nc1ccc(Cl)cc1 | 3.3 µg/mL (≈ 12.1 µM) |
| CCOC(=O)C1CCN(CCC(=O)Nc2ccc(C)cc2)CC1 | > 47.8 µg/mL |
| CC1CN(C(=O)COC(=O)c2ccc(Cl)c(N)c2)CC(C)O1 (stereo not drawn) | > 49 µg/mL |
| O=C(Nc1ccc(NC(=O)c2cccs2)cc1)c1cccs1 | 0.9 µg/mL (≈ 2.74 µM) |
| COc1ccccc1OCC(=O)OCC(=O)NC1CCCCC1 | > 48.2 µg/mL |
| Cc1ccc2cccc(OCC(=O)NCCC3=CCCCC3)c2n1 | 46.5 µg/mL (≈ 143 µM) |
| COc1ccc(Nc2cc(C)c3c(O)cccc3n2)cc1 | 22.1 µg/mL (≈ 78.8 µM) |
| Cc1ccc(CN2CCSCC2)cc1 | 7.4 µg/mL (≈ 35.7 µM) |
| CC(C)(C)C(=O)NC(=S)N1CCc2ccccc21 | 31 µg/mL (≈ 118 µM) |
| CCOC(=O)C(C(=O)N(C)Cc1ccccc1)C1CCCCC1 (stereo not drawn) | 41.8 µg/mL (≈ 132 µM) |
| Cc1cc(C)cc(C(=O)Nc2cccnc2)c1 | > 33.9 µg/mL |
| CCn1c(SCc2ccccc2)nc2cc(OC)c(OC)cc2c1=O | < 0.4 µg/mL |

| SMILES | solubility kinetic |
| --- | --- |
| NC(=S)/N=C/c1c(O)[nH]c(=O)[nH]c1=O | 15.6 µg/mL (≈ 72.8 µM) |
| Cl.Oc1cc2c(cc1O)C(c1ccccc1)CNCC2 (stereo not drawn) | > 43.8 µg/mL |
| NS(=O)(=O)c1ccc(NC(=O)c2cc(=O)c3ccccc3o2)cc1 | 18.7 µg/mL (≈ 54.3 µM) |
| Cc1ccc2cc(C)c(SCC(=O)NCC3CCCO3)nc2c1 (stereo not drawn) | 48.2 µg/mL (≈ 146 µM) |
| CSc1ncc(C(=O)NCCCc2ccccc2)c(C)n1 | 43 µg/mL (≈ 143 µM) |
| Cc1cccc(NC(=S)NCCc2ccc(F)cc2)c1C | 2.8 µg/mL (≈ 9.26 µM) |
| CSc1ccccc1NC(=O)c1ccc2c(c1)CCN2S(C)(=O)=O | 9.1 µg/mL (≈ 25.1 µM) |
| Cc1ccc(S(=O)(=O)N2CCOCC2)cc1NC(=O)Nc1ccc([N+](=O)[O-])cc1 | 1.8 µg/mL (≈ 4.28 µM) |
| CCN(CC)CCn1c(NC(=O)c2ccc(C)cc2)nc2ccccc21 | 25.9 µg/mL (≈ 73.9 µM) |
| CCN(CC(=O)Nc1cc(Cl)cc(Cl)c1)CC(=O)NC1CCS(=O)(=O)C1 (stereo not drawn) | 52.3 µg/mL (≈ 124 µM) |
| N#CC(c1nc2ccccc2nc1N1CCOCC1)S(=O)(=O)c1ccccc1 (stereo not drawn) | > 59.2 µg/mL |
| CCOC(=O)N1CCC(NS(=O)(=O)c2ccccc2)CC1 | > 46.9 µg/mL |
| COc1ccc(C(=O)CC(=O)C(=O)Nc2c(C)cccc2C)cc1 | 15.6 µg/mL (≈ 47.9 µM) |
| O=C(Nc1cccc(Br)c1)c1cc(=O)c2ccccc2o1 | < 0.7 µg/mL |
| Cl.Nc1ncnc2sc3c(c12)CCNC3 | > 36.4 µg/mL |
| COc1ccc(CC(=O)N/N=C/c2cccs2)cc1OC | > 45.7 µg/mL |
| Cc1c(C(=O)N(C)Cc2cccc(F)c2)oc2c(Cl)cccc12 | 3.6 µg/mL (≈ 10.9 µM) |
| O=C(Nc1cccc(Cl)c1)C1CCCN(c2cnccn2)C1 (stereo not drawn) | > 47.5 µg/mL |
